Laboratory results taken from PMC5828182, “Inhibition of nuclear factor of activated T cells (NFAT) c3 activation attenuates acute lung injury and pulmonary edema in murine models of sepsis” (Oncotarget, 2018).

How the values were obtained:
[1] = tested on: experimental colitis model in mice; conditions: cited from earlier work
[2] = tested on: islet allografts between BL/6 and C3H/HeN mouse strains; conditions: BL/6 and C3H/HeN mice; cited from earlier work
[3] = tested on: mouse models of Alzheimer's disease; conditions: mice; cited from earlier work
diabetic db/db mice = conditions: cited from earlier work
NFAT = conditions: cited from earlier work
Source text: (§1) Research efforts to identify NFAT inhibitors span over the last two decades but so far none of them performed well in the clinical trials.

calcineurin = conditions: derivative of cyclosporine; cited from earlier work
Source text: as §1

plaque psoriasis = conditions: cited from earlier work
Source text: as §1

[4] = tested on: NFAT dependent gene expression; conditions: liver allograft patients, after 8–12 months; cited from earlier work
[5] = tested on: NFATc3−/− and wild type mice, severe CLP sepsis; experiment: survival after severe (lethal) CLP; type: in vivo, mouse
Method: Figure 5 NFATc3^−/− mice show improved arterial Oxygen saturation and survival compared to wild type mice (A) NFATc3^−/− and wild type mice (N = 5) were injected with 15 mg/kg LPS i.p and the arterial oxygen saturation was measured using STARR Life Sciences Corp. Pulse Oximeter. (B–C) NFATc3^−/− and wild type mice (N = 5 sham control group; N = 10 CLP group) were subjected to severe CLP, maintained on regular or imipenem monohydrate supplemented water and the survival was monitored over a period of 96 h. A^* p ≤ 0.001 WT-LPS vs. WT-Control; ^** p ≤ 0.01 NFATc3^−/− LPS vs. WT-LPS.
Cecal ligation puncture (CLP) sepsis models were established according to Cuenca et al.. In an anesthetized mouse, the cecum is exposed and ligated below ileo-cecal valve and two perforations were made across the cecum using 21G needle. The cecum is then compressed to express minute amount of fecal material. To establish moderate CLP sepsis the cecum was ligated at less than 1.0 cm from the distal end and for severe sepsis about 2.0 cm of the cecum from distal end was ligated. Pulmonary edema, arterial oxygenation, and inflammation were evaluated in moderate CLP sepsis models. […] LPS (15 mg/kg) or the same volume of normal saline was administered into intraperitoneal cavity of WT or NFATc3^−/− mice and arterial oxygenation was measured by pulse oximetry. […]

## 11R-VIVIT
[1]
  effect in experimental colitis: protective effect
[2]
  immunosuppression in islet allografts: improved immunosuppression
[3]
  microgliosis and Amyloid β peptide (Aβ) plaque load: attenuated
Diabetic db/db mice
  albuminuria: markedly attenuates
  mesangial matrix expansion and podocyte injury: alleviated

## COc1cc(C[C@H]2C(=O)OC[C@@H]2Cc2ccc(OC)c(OC)c2)ccc1O [Arctigenin]
NFAT
  NFAT inhibition: variable degree of NFAT inhibition

## C=C/C=C/C[C@@H](C)[C@@H](O)[C@H]1C(=O)N[C@@H](CC)C(=O)N(C)CC(=O)N(C)[C@@H](CC(C)C)C(=O)N[C@@H](C(C)C)C(=O)N(C)[C@@H](CC(C)C)C(=O)N[C@@H](C)C(=O)N[C@H](C)C(=O)N(C)[C@@H](CC(C)C)C(=O)N(C)[C@@H](CC(C)C)C(=O)N(C)[C@@H](C(C)C)C(=O)N1C [ISA247]
calcineurin
  calcineurin inhibition: more potent and effectively inhibited Calcineurin
Plaque psoriasis
  phase III outcome: did not result in to any commercial products so far

## C=CC[C@@H]1/C=C(\C)C[C@H](C)C[C@H](OC)[C@H]2O[C@@](O)(C(=O)C(=O)N3CCCC[C@H]3C(=O)O[C@H](/C(C)=C/[C@@H]3CC[C@@H](O)[C@H](OC)C3)[C@H](C)[C@@H](O)CC1=O)[C@H](C)C[C@@H]2OC [Tacrolimus]
[4]
  NFAT dependent gene expression: increased NFAT dependent gene expression

## Cc1cc2c(C(C)C)c(O)c(O)c(C=O)c2c(O)c1-c1c(C)cc2c(C(C)C)c(O)c(O)c(C=O)c2c1O [gossypol]
NFAT
  NFAT inhibition: variable degree of NFAT inhibition

## C[C@@H](O)[C@H]1C(=O)N2C(C(=O)O)=C(SCCN=CN)C[C@H]12 [imipenem, imipenem monohydrate]
[5]; NFATc3−/− mice, imipenem in drinking water, monitored over 96 h, N = 10 CLP group
  survival: 60%
[5]; WT mice, imipenem (broad-spectrum antibiotic) in drinking water, 96 h
  lethality / survival of WT mice: not improved any further

## O=c1c(O)c(-c2ccc(O)cc2)oc2cc(O)cc(O)c12 [kaempferol]
NFAT
  NFAT inhibition: variable degree of NFAT inhibition
